Test results taken from patent publication US10597387B2, “Methods to treat lymphoplasmacytic lymphoma” (Dana-Farber Cancer Institute, Inc., priority 2013, dated 2020).
Like-named read-outs stand apart in the source and are kept apart here.

Key:
Test in all cases: KiNativ kinase profiling
SGK3 = SGK3 (Homo sapiens (Human), UniProt Q96BR1); type: binding; conditions: Lys1, A375 cells, read-out: inhibition of kinase labeling
PKN1 = PKN1 (Homo sapiens (Human), UniProt Q16512); type: binding; conditions: Lys1, A375 cells, read-out: inhibition of kinase labeling
CDC2 = CDC2 (Homo sapiens (Human), UniProt P06493); type: binding; conditions: Lys2, A375 cells, read-out: inhibition of kinase labeling
BTK = BTK (Homo sapiens (Human), UniProt Q06187); type: binding; conditions: read-out: inhibition of kinase labeling
PIP4K2C = PIP4K2C (Homo sapiens (Human), UniProt Q8TBX8); type: binding; conditions: ATP, A375 cells, read-out: inhibition of kinase labeling
FRAP = FRAP (Homo sapiens (Human), UniProt P42345); type: binding; conditions: ATP, A375 cells, read-out: inhibition of kinase labeling
MARK3 = MARK3 (Homo sapiens (Human), UniProt P27448); type: binding; conditions: Lys1, A375 cells, read-out: inhibition of kinase labeling
PKD2 = PKD2 (Homo sapiens (Human), UniProt Q9BZL6); type: binding; conditions: Lys1, A375 cells, read-out: inhibition of kinase labeling
LOK = LOK (Homo sapiens (Human), UniProt O94804); type: binding; conditions: Lys2, A375 cells, read-out: inhibition of kinase labeling
ROCK1, ROCK2 = type: binding, Homo sapiens; conditions: Lys2, 1 μM, A375 cells
p70S6K = p70S6K (Homo sapiens (Human), UniProt P23443); type: binding; conditions: Lys2, A375 cells, read-out: inhibition of kinase labeling
PIK3C3 = PIK3C3 (Homo sapiens (Human), UniProt Q8NEB9); type: binding; conditions: ATP, A375 cells, read-out: inhibition of kinase labeling
CDK11, CDK8 = type: binding, Homo sapiens; conditions: Lys2, 1 μM, A375 cells
PITSLRE = type: binding, Homo sapiens; conditions: Lys2, 1 μM, A375 cells
PIP5K3 = PIP5K3 (Homo sapiens (Human), UniProt Q9Y2I7); type: binding; conditions: ATP, A375 cells, read-out: inhibition of kinase labeling
MAP2K5 = MAP2K5 (Homo sapiens (Human), UniProt Q13163); type: binding; conditions: Lys2, A375 cells, read-out: inhibition of kinase labeling
NEK7 = NEK7 (Homo sapiens (Human), UniProt Q8TDX7); type: binding; conditions: Lys1, A375 cells, read-out: inhibition of kinase labeling
CaMK2d = CaMK2d (Homo sapiens (Human), UniProt Q13557); type: binding; conditions: Lys1, A375 cells, read-out: inhibition of kinase labeling
HPK1 = HPK1 (Homo sapiens (Human), UniProt Q92918); type: binding; conditions: Lys1, A375 cells, read-out: inhibition of kinase labeling
CDK2 = CDK2 (Homo sapiens (Human), UniProt P24941); type: binding; conditions: Lys2, A375 cells, read-out: inhibition of kinase labeling
CDK7 = CDK7 (Homo sapiens (Human), UniProt P50613); type: binding; conditions: Lys2, A375 cells, read-out: inhibition of kinase labeling
MAP3K5 = MAP3K5 (Homo sapiens (Human), UniProt Q99683); type: binding; conditions: Lys2, A375 cells, read-out: inhibition of kinase labeling
MST1 = MST1 (Homo sapiens (Human), UniProt Q13043); type: binding; conditions: Lys1, A375 cells, read-out: inhibition of kinase labeling
STLK5 = STLK5 (Homo sapiens (Human), UniProt Q7RTN6); type: binding; conditions: Activation Loop, A375 cells, read-out: inhibition of kinase labeling
CK1a = CK1a (Homo sapiens (Human), UniProt P48729); type: binding; conditions: Lys2, A375 cells, read-out: inhibition of kinase labeling
ZAK = ZAK (Homo sapiens (Human), UniProt Q9NYL2); type: binding
AurA = AurA (Homo sapiens (Human), UniProt O14965); type: binding; conditions: Lys2, A375 cells, read-out: inhibition of kinase labeling
Erk2 = Erk2 (Homo sapiens (Human), UniProt P28482); type: binding; conditions: Lys2, A375 cells, read-out: inhibition of kinase labeling
JAK1 domain2 = JAK1 domain2 (Homo sapiens (Human), UniProt P23458); type: binding; conditions: Lys1, A375 cells, read-out: inhibition of kinase labeling
GSK3A = GSK3A (Homo sapiens (Human), UniProt P49840); type: binding; conditions: Lys2, A375 cells, read-out: inhibition of kinase labeling
PLK1 = PLK1 (Homo sapiens (Human), UniProt P53350); type: binding; conditions: Lys1, A375 cells, read-out: inhibition of kinase labeling
LCK = LCK (Homo sapiens (Human), UniProt P06239); type: binding; conditions: Activation Loop, A375 cells, read-out: inhibition of kinase labeling
NEK9 = NEK9 (Homo sapiens (Human), UniProt Q8TD19); type: binding; conditions: Lys2, A375 cells, read-out: inhibition of kinase labeling

Chain of ZAK (Q9NYL2 whole entry): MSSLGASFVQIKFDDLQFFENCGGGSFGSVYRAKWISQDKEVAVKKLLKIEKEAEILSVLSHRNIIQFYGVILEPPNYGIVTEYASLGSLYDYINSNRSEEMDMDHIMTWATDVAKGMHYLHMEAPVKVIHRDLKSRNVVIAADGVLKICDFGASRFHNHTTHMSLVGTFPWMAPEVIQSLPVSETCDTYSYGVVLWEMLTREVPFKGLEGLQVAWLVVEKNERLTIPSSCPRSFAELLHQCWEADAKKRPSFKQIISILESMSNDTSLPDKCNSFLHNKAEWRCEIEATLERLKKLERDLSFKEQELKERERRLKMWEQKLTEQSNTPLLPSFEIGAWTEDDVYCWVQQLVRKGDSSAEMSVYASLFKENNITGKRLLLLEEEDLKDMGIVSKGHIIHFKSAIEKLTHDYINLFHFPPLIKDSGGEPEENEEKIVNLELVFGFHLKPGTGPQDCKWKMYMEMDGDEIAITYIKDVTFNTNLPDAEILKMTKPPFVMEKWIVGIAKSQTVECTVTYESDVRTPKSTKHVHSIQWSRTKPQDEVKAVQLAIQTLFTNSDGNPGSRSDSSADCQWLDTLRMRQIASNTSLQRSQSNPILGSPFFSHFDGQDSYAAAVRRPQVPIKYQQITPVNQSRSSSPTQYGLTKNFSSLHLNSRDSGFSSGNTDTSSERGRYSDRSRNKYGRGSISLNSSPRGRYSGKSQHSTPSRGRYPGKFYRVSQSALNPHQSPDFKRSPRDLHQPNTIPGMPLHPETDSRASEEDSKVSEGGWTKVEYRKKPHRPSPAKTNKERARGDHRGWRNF
Chain of BTK (Q06187 whole entry): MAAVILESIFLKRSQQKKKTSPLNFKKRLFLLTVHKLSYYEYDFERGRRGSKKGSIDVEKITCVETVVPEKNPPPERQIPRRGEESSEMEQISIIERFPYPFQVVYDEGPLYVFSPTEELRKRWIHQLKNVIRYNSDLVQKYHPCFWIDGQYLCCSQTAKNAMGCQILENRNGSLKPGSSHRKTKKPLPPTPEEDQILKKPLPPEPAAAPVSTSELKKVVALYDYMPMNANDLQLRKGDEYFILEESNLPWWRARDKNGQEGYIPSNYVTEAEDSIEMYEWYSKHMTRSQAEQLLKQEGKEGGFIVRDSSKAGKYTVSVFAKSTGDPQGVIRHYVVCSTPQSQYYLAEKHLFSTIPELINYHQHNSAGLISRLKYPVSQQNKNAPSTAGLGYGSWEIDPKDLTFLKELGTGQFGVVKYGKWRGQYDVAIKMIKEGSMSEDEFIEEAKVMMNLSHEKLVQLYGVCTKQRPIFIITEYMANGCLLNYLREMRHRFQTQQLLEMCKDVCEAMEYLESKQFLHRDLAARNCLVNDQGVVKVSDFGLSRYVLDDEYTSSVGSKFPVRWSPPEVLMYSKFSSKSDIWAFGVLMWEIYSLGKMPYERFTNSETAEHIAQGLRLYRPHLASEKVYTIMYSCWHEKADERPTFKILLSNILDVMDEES
Chain of PIP4K2C (Q8TBX8 whole entry): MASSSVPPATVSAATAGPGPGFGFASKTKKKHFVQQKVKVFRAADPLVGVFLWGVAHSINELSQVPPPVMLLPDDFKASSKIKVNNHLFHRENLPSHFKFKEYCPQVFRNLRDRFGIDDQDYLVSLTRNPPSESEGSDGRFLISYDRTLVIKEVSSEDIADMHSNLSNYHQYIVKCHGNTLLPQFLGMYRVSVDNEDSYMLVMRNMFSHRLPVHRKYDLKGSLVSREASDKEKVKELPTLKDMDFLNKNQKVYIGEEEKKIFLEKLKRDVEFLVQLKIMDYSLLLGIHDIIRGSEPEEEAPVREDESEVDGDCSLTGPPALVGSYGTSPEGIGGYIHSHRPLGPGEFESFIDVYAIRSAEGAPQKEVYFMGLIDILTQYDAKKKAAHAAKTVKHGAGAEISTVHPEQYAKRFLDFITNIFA
Chain of MAP3K5 (Q99683 whole entry): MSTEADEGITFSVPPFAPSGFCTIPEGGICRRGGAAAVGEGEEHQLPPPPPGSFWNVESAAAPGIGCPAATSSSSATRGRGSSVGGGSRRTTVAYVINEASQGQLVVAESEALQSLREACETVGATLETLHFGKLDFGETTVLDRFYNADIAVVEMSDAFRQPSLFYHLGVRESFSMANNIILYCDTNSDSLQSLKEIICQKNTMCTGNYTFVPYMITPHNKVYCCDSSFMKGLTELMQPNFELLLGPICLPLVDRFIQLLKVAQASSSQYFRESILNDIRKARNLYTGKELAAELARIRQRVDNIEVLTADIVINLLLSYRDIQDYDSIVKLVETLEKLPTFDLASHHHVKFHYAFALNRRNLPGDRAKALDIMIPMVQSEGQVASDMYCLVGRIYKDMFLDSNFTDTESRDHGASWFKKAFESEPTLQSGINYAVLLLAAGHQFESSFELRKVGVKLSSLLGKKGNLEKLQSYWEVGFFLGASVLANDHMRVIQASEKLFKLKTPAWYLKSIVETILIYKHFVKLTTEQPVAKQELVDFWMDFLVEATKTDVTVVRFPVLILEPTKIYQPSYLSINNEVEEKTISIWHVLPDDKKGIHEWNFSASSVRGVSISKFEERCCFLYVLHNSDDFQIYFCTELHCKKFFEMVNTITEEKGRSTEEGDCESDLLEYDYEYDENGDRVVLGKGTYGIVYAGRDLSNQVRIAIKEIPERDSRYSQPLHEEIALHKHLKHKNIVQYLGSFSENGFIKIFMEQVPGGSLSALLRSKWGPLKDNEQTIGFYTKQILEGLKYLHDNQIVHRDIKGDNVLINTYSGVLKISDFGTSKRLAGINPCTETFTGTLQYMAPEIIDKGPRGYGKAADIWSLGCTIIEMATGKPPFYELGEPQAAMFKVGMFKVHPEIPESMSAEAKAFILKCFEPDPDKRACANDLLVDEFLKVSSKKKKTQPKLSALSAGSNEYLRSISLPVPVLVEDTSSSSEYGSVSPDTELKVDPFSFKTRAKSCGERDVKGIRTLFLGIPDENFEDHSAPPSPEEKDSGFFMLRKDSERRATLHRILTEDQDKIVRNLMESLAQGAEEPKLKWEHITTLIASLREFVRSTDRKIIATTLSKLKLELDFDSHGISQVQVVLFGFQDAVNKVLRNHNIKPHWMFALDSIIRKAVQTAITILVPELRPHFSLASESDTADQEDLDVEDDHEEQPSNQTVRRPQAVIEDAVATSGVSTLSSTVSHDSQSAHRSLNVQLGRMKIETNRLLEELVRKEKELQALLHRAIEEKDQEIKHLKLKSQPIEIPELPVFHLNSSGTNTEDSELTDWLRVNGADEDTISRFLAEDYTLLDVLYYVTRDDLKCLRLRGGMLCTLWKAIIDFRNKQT
Chain of LOK (O94804 whole entry): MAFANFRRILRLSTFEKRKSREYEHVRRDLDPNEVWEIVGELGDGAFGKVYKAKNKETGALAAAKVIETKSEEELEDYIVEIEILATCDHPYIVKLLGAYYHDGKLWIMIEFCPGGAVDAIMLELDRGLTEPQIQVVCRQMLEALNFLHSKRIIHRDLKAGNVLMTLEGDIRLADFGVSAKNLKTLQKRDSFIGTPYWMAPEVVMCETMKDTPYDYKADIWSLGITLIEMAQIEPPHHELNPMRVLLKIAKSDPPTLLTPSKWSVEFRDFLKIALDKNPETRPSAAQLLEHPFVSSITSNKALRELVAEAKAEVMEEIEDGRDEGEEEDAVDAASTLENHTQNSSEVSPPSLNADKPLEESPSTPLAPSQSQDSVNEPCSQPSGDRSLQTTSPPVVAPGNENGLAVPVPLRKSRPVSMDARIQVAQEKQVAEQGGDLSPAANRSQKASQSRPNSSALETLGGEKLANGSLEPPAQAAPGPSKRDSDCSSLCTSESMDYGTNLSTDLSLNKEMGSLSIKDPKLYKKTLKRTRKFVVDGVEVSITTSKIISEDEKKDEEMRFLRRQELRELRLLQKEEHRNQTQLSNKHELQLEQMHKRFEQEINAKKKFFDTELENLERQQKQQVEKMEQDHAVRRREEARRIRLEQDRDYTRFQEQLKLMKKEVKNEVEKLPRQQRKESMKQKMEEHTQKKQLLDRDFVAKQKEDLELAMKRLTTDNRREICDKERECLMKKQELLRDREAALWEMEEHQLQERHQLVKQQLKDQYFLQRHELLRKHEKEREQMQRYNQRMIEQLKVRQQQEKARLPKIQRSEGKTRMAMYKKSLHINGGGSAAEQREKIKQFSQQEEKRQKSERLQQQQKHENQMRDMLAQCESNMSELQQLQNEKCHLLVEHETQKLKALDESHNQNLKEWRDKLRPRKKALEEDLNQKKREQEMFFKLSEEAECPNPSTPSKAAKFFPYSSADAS
Chain of CDC2 (P06493 whole entry): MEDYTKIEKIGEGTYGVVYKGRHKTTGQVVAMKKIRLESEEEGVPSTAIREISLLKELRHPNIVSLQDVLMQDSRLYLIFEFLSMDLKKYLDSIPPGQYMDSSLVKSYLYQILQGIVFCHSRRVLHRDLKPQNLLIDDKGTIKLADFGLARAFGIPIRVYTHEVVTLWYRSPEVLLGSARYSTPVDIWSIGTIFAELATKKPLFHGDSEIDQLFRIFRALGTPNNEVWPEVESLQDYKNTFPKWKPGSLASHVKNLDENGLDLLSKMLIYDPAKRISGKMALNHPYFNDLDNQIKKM
Chain of p70S6K (P23443 whole entry): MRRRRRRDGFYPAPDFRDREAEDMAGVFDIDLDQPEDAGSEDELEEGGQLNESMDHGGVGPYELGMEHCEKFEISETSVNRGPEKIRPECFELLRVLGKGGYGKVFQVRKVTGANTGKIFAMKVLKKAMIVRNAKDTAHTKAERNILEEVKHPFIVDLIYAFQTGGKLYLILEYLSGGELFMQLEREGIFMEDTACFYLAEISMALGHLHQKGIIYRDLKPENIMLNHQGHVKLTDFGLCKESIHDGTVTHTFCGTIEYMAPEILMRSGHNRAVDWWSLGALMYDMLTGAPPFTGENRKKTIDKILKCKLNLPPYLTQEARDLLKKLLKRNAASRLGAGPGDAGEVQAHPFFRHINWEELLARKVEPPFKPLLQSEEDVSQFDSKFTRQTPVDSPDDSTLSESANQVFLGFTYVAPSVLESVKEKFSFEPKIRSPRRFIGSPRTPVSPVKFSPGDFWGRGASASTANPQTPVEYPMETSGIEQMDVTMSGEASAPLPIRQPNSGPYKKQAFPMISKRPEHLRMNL

SMILES: Cc1ccc(C(=O)Nc2cccc(C(C)(C)C#N)c2)cc1NC(=O)c1cncc(-c2cccs2)c1 [I-6, N-(5-((3-(2-cyanopropan-2-yl)phenyl)carbamoyl)-2-methylphenyl)-5-(thiophen-2-yl)nicotinamide]
- inhibition at 1 µM (SGK3): -7.2%
- inhibition at 1 µM (PKN1): -35.2%
- inhibition at 1 µM (CDC2): -7.9%
- inhibition at 1 µM (BTK; Activation Loop, A375 cells): -12.5%
- inhibition at 1 µM (BTK; Lys1, A375 cells): 7.8%
- inhibition at 1 µM (PIP4K2C): 12.3%
- inhibition at 1 µM (FRAP): -8.8%
- inhibition at 1 µM (MARK3): -2.2%
- inhibition at 1 µM (PKD2): -17.8%
- inhibition at 1 µM (LOK): 23.9%
- inhibition of kinase labeling (ROCK1, ROCK2): 12.7%
- inhibition at 1 µM (p70S6K): 7.4%
- inhibition at 1 µM (PIK3C3): -23.1%
- inhibition of kinase labeling (CDK11, CDK8): 20.7%
- inhibition of kinase labeling (PITSLRE): 1.9%
- inhibition at 1 µM (PIP5K3): 17.8%
- inhibition at 1 µM (MAP2K5): 28.7%
- inhibition at 1 µM (NEK7): 10.7%
- inhibition at 1 µM (CaMK2d): -1.1%
- inhibition at 1 µM (HPK1): 7.5%
- inhibition at 1 µM (CDK2): 8.6%
- inhibition at 1 µM (CDK7): -6.8%
- inhibition at 1 µM (MAP3K5): 16.2%
- inhibition at 1 µM (MST1): -26.3%
- inhibition at 1 µM (STLK5): -17.8%
- inhibition at 1 µM (CK1a): 25.1%
- inhibition of kinase labeling (ZAK; Lys1, 1 μM, A375 cells): >95%
- inhibition at 1 µM (ZAK; Lys1, A375 cells, read-out: inhibition of kinase labeling): > 95%
- inhibition at 1 µM (AurA): -21.6%
- inhibition at 1 µM (Erk2): -11%
- inhibition at 1 µM (JAK1 domain2): 3.3%
- inhibition at 1 µM (GSK3A): 17.3%
- inhibition at 1 µM (PLK1): -5.4%
- inhibition at 1 µM (LCK): 82.1%
- inhibition at 1 µM (NEK9): -0.3%
